ChEMBL document CHEMBL1201862, “PubChem BioAssay data set” (2004)
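Cells were grown in 96-well plates and exposed to each compound for 48 hours at five concentrations; endpoints were interpolated linearly between bracketing concentrations, or set to the highest concentration if not reached. GI50 = concentration required for 50% inhibition of growth.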 The source made the active and inactive calls. Rule as the data show it: active = GI50 up to about 1.1 µM and inactive = higher.

Columns and labels:
Test in all cases: NCI tumour cell line growth inhibition, 48 h
A549 = tested on: A549
Malme-3M = tested on: Malme-3M
HCC 2998 = tested on: HCC 2998
RPMI-8226 = tested on: RPMI-8226
UACC-257 = tested on: UACC-257
MDA-MB-231 = tested on: MDA-MB-231
IGROV-1 = tested on: IGROV-1
SNB-75 = tested on: SNB-75
NCI-H23 = tested on: NCI-H23
CAKI-1 = tested on: CAKI-1
SR = tested on: SR
CCRF-CEM = tested on: CCRF-CEM
M14 = tested on: M14
T47D = tested on: T47D
HCT-116 = tested on: HCT-116
MOLT-4 = tested on: MOLT-4
SW-620 = tested on: SW-620
786-0 = tested on: 786-0
SK-MEL-28 = tested on: SK-MEL-28
MDA-N = tested on: MDA-N
U-251 = tested on: U-251
NCI-H226 = tested on: NCI-H226
OVCAR-3 = tested on: OVCAR-3
MDA-MB-435 = tested on: MDA-MB-435
NCI/ADR-RES = tested on: NCI/ADR-RES
Hs-578T = tested on: Hs-578T
HOP-62 = tested on: HOP-62
SF-539 = tested on: SF-539
MCF7 = tested on: MCF7
UACC-62 = tested on: UACC-62
HOP-92 = tested on: HOP-92
SK-OV-3 = tested on: SK-OV-3
OVCAR-5 = tested on: OVCAR-5
HT-29 = tested on: HT-29
NCI-H522 = tested on: NCI-H522
SK-MEL-2 = tested on: SK-MEL-2
DU-145 = tested on: DU-145
COLO 205 = tested on: COLO 205
SF-295 = tested on: SF-295
TK-10 = tested on: TK-10
UO-31 = tested on: UO-31
ACHN = tested on: ACHN
NCI-H460 = tested on: NCI-H460
HL-60 = tested on: HL-60
OVCAR-8 = tested on: OVCAR-8
SNB-19 = tested on: SNB-19
SK-MEL-5 = tested on: SK-MEL-5
LOX IMVI = tested on: LOX IMVI
A498 = tested on: A498
KM12 = tested on: KM12
RXF 393 = tested on: RXF 393
K562 = tested on: K562
EKVX = tested on: EKVX
HCT-15 = tested on: HCT-15
SN12C = tested on: SN12C
OVCAR-4 = tested on: OVCAR-4
PC-3 = tested on: PC-3
BT-549 = tested on: BT-549
SF-268 = tested on: SF-268

SMILES: O=[N+]([O-])c1ccc2c(c1)nc(Cc1ccc(Cl)cc1)n2C[C@@H]1CCCN2CCCCC12 (stereo partly specified)
- GI50 (A549): 19.2 µM (inactive)
- GI50 (Malme-3M): 9.16 µM (inactive)
- GI50 (HCC 2998): 7.64 µM (inactive)
- GI50 (RPMI-8226): 26.3 µM (inactive)
- GI50 (UACC-257): 15.3 µM (inactive)
- GI50 (MDA-MB-231): 16.5 µM (inactive)
- GI50 (IGROV-1): 9.84 µM (inactive)
- GI50 (SNB-75): 15 µM (inactive)
- GI50 (NCI-H23): 14.9 µM (inactive)
- GI50 (CAKI-1): 15.2 µM (inactive)
- GI50 (SR): 22.7 µM (inactive)
- GI50 (CCRF-CEM): 11.8 µM (inactive)
- GI50 (M14): 9.79 µM (inactive)
- GI50 (T47D): 16.7 µM (inactive)
- GI50 (HCT-116): 10.5 µM (inactive)
- GI50 (MOLT-4): 10.9 µM (inactive)
- GI50 (SW-620): 20.8 µM (inactive)
- GI50 (786-0): 11.8 µM (inactive)
- GI50 (SK-MEL-28): 14.6 µM (inactive)
- GI50 (MDA-N): 12.9 µM (inactive)
- GI50 (U-251): 18.6 µM (inactive)
- GI50 (NCI-H226): 16.6 µM (inactive)
- GI50 (OVCAR-3): 15.5 µM (inactive)
- GI50 (MDA-MB-435): 14.3 µM (inactive)
- GI50 (NCI/ADR-RES): 13.9 µM (inactive)
- GI50 (Hs-578T): 13.5 µM (inactive)
- GI50 (HOP-62): 20.5 µM (inactive)
- GI50 (SF-539): 18.4 µM (inactive)
- GI50 (MCF7): 0.54 µM (active)
- GI50 (UACC-62): 15.2 µM (inactive)
- GI50 (HOP-92): 6.47 µM (inactive)
- GI50 (SK-OV-3): 18.9 µM (inactive)
- GI50 (OVCAR-5): 15.5 µM (inactive)
- GI50 (HT-29): 8.59 µM (inactive)
- GI50 (NCI-H522): 12.3 µM (inactive)
- GI50 (SK-MEL-2): 15.8 µM (inactive)
- GI50 (DU-145): 17.7 µM (inactive)
- GI50 (COLO 205): 10.4 µM (inactive)
- GI50 (SF-295): 15.3 µM (inactive)
- GI50 (TK-10): 17.6 µM (inactive)
- GI50 (UO-31): 1.58 µM (inactive)
- GI50 (ACHN): 13.4 µM (inactive)
- GI50 (NCI-H460): 14 µM (inactive)
- GI50 (HL-60): 28.9 µM (inactive)
- GI50 (OVCAR-8): 15.1 µM (inactive)
- GI50 (SNB-19): 22.8 µM (inactive)
- GI50 (SK-MEL-5): 14.8 µM (inactive)
- GI50 (LOX IMVI): 13.7 µM (inactive)
- GI50 (A498): 6.05 µM (inactive)
- GI50 (KM12): 13.5 µM (inactive)
- GI50 (RXF 393): 11.6 µM (inactive)
- GI50 (K562): 15 µM (inactive)
- GI50 (EKVX): 8.39 µM (inactive)
- GI50 (HCT-15): 16 µM
- GI50 (SN12C): 13.6 µM (inactive)
- GI50 (OVCAR-4): 9.86 µM (inactive)
- GI50 (PC-3): 20.2 µM (inactive)
- GI50 (BT-549): 13 µM (inactive)

SMILES: O=c1[nH]cnc2c1ncn2[C@@H]1C[C@@H]1CO
- GI50 (A549): > 100 µM (inactive)
- GI50 (Malme-3M): > 100 µM (inactive)
- GI50 (HCC 2998): > 100 µM (inactive)
- GI50 (RPMI-8226): > 10 µM (inactive)
- GI50 (UACC-257): > 100 µM (inactive)
- GI50 (MDA-MB-231): > 100 µM (inactive)
- GI50 (IGROV-1): > 100 µM (inactive)
- GI50 (SNB-75): > 100 µM (inactive)
- GI50 (NCI-H23): > 100 µM (inactive)
- GI50 (CAKI-1): > 100 µM (inactive)
- GI50 (SR): > 100 µM (inactive)
- GI50 (CCRF-CEM): > 100 µM (inactive)
- GI50 (SF-268): > 100 µM (inactive)
- GI50 (M14): > 100 µM (inactive)
- GI50 (T47D): > 100 µM (inactive)
- GI50 (HCT-116): > 100 µM (inactive)
- GI50 (MOLT-4): > 100 µM (inactive)
- GI50 (SW-620): > 100 µM (inactive)
- GI50 (786-0): > 100 µM (inactive)
- GI50 (SK-MEL-28): > 100 µM (inactive)
- GI50 (MDA-N): > 100 µM (inactive)
- GI50 (U-251): > 100 µM (inactive)
- GI50 (NCI-H226): > 100 µM (inactive)
- GI50 (MDA-MB-435): > 100 µM (inactive)
- GI50 (NCI/ADR-RES): > 100 µM (inactive)
- GI50 (Hs-578T): 6.22 µM (inactive)
- GI50 (HOP-62): > 100 µM (inactive)
- GI50 (SF-539): > 100 µM (inactive)
- GI50 (MCF7): > 100 µM (inactive)
- GI50 (UACC-62): > 100 µM (inactive)
- GI50 (HOP-92): > 100 µM (inactive)
- GI50 (OVCAR-5): > 100 µM (inactive)
- GI50 (HT-29): > 100 µM (inactive)
- GI50 (NCI-H522): > 100 µM (inactive)
- GI50 (SK-MEL-2): > 100 µM (inactive)
- GI50 (DU-145): > 100 µM (inactive)
- GI50 (COLO 205): > 100 µM (inactive)
- GI50 (TK-10): > 100 µM (inactive)
- GI50 (UO-31): > 100 µM (inactive)
- GI50 (ACHN): > 100 µM (inactive)
- GI50 (NCI-H460): > 100 µM (inactive)
- GI50 (HL-60): > 100 µM (inactive)
- GI50 (OVCAR-8): > 100 µM (inactive)
- GI50 (SNB-19): > 100 µM (inactive)
- GI50 (SK-MEL-5): > 100 µM (inactive)
- GI50 (LOX IMVI): > 100 µM (inactive)
- GI50 (A498): > 10 µM (inactive)
- GI50 (KM12): > 100 µM (inactive)
- GI50 (RXF 393): > 100 µM (inactive)
- GI50 (K562): > 100 µM (inactive)
- GI50 (EKVX): > 100 µM (inactive)
- GI50 (HCT-15): > 100 µM
- GI50 (SN12C): > 100 µM (inactive)
- GI50 (OVCAR-4): > 100 µM (inactive)
- GI50 (PC-3): > 100 µM (inactive)
- GI50 (BT-549): > 100 µM (inactive)

SMILES: Clc1ccc(CCN2CCN(CCCc3ccccc3)CC2)cc1Cl
- GI50 (A549): 15.9 µM (inactive)
- GI50 (Malme-3M): 19.1 µM (inactive)
- GI50 (HCC 2998): 17 µM (inactive)
- GI50 (RPMI-8226): 20.9 µM (inactive)
- GI50 (UACC-257): 17.1 µM (inactive)
- GI50 (MDA-MB-231): 16.8 µM (inactive)
- GI50 (IGROV-1): 17 µM (inactive)
- GI50 (NCI-H23): 16.9 µM (inactive)
- GI50 (CAKI-1): 17.1 µM (inactive)
- GI50 (SR): 26.7 µM (inactive)
- GI50 (CCRF-CEM): 33.3 µM (inactive)
- GI50 (SF-268): 20.4 µM (inactive)
- GI50 (M14): 14.4 µM (inactive)
- GI50 (T47D): 17.2 µM (inactive)
- GI50 (HCT-116): 15.1 µM (inactive)
- GI50 (MOLT-4): 29.6 µM (inactive)
- GI50 (SW-620): 20 µM (inactive)
- GI50 (786-0): 16.6 µM (inactive)
- GI50 (SK-MEL-28): 18.7 µM (inactive)
- GI50 (MDA-N): 16.9 µM (inactive)
- GI50 (U-251): 17.4 µM (inactive)
- GI50 (NCI-H226): 20.1 µM (inactive)
- GI50 (OVCAR-3): 16.4 µM (inactive)
- GI50 (MDA-MB-435): 17.3 µM (inactive)
- GI50 (NCI/ADR-RES): 14.7 µM (inactive)
- GI50 (Hs-578T): 23.5 µM (inactive)
- GI50 (HOP-62): 18.5 µM (inactive)
- GI50 (SF-539): 17.8 µM (inactive)
- GI50 (MCF7): 17.5 µM (inactive)
- GI50 (UACC-62): 16.8 µM (inactive)
- GI50 (HOP-92): 11.3 µM (inactive)
- GI50 (SK-OV-3): 19.3 µM (inactive)
- GI50 (OVCAR-5): 16.2 µM (inactive)
- GI50 (HT-29): 13.2 µM (inactive)
- GI50 (NCI-H522): 20.6 µM (inactive)
- GI50 (SK-MEL-2): 18.8 µM (inactive)
- GI50 (DU-145): 16.4 µM (inactive)
- GI50 (COLO 205): 15.4 µM (inactive)
- GI50 (SF-295): 16.4 µM (inactive)
- GI50 (TK-10): 16.2 µM (inactive)
- GI50 (UO-31): 12.2 µM (inactive)
- GI50 (ACHN): 19.6 µM (inactive)
- GI50 (NCI-H460): 17.7 µM (inactive)
- GI50 (HL-60): 15.7 µM (inactive)
- GI50 (OVCAR-8): 16.3 µM (inactive)
- GI50 (SNB-19): 16.6 µM (inactive)
- GI50 (SK-MEL-5): 15.8 µM (inactive)
- GI50 (LOX IMVI): 17.2 µM (inactive)
- GI50 (A498): 15.8 µM (inactive)
- GI50 (KM12): 17.7 µM (inactive)
- GI50 (K562): 26.6 µM (inactive)
- GI50 (EKVX): 17.4 µM (inactive)
- GI50 (HCT-15): 13.5 µM
- GI50 (SN12C): 16 µM (inactive)
- GI50 (OVCAR-4): 16.3 µM (inactive)
- GI50 (PC-3): 17.7 µM (inactive)
- GI50 (BT-549): 15.8 µM (inactive)
